Data as given in PubChem BioAssay AID328 (DTP/NCI, 2004).
Values joined by “and” are separate entries in the source; they are usually repeats but may differ in a detail not shown here. Equal entries are not always repeated. Toxic doses and inconclusive results are not listed. How the source made its calls: active means survival T/C of 150% or more; inactive means T/C below 125% in these data.

Test system: BDF1 mice, P388 leukemia ip, median survival T/C
Experiment: NCI In Vivo Anticancer Drug Screen. Data for tumor model P388 Leukemia (intraperitoneal) in B6D2F1 (BDF1) mice
Conditions: endpoint: median survival time, higher = longer survival
Procedure, shortened: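 Read-out is survival of treated animals expressed relative to the vehicle group, as a T/C ratio.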

[1] = dose: 25.0 mg/kg/injection, schedule: Q04DX003 (ip), vehicle: saline
[2] = dose: 50.0 mg/kg/injection, schedule: Q04DX003 (ip), vehicle: saline
[3] = dose: 100.0 mg/kg/injection, schedule: Q04DX003 (ip), vehicle: saline
[4] = dose: 100.0 mg/kg/injection, schedule: Q04DX003 (ip), vehicle: saline with Tween-80
[5] = dose: 200.0 mg/kg/injection, schedule: Q04DX003 (ip), vehicle: saline with Tween-80
[6] = dose: 400.0 mg/kg/injection, schedule: Q04DX003 (ip), vehicle: saline with Tween-80
[7] = dose: 100.0 mg/kg/injection, schedule: Q01DX009 (ip), vehicle: saline with Tween-80
[8] = dose: 200.0 mg/kg/injection, schedule: Q01DX009 (ip), vehicle: saline with Tween-80

Measured: T/C

CC(=O)CC(C)=O.CC(=O)CC(C)=O.CC(=O)CC(C)=O.[Ga]
inactive: [1] 100 % of control | [2] 95 % of control | [3] 86 % of control

Cc1ccc(-n2c(=S)[nH]c3ccccc3c2=O)cc1C
inactive: dose: 100.0 mg/kg/injection, schedule: Q01DX009 (ip), vehicle: Klucel (hydroxypropylcellulose) (HPC) 100 % of control | dose: 100.0 mg/kg/injection, schedule: Q04DX003 (ip), vehicle: Klucel (hydroxypropylcellulose) (HPC) 105 % of control | dose: 200.0 mg/kg/injection, schedule: Q01DX009 (ip), vehicle: Klucel (hydroxypropylcellulose) (HPC) 86 % of control | dose: 200.0 mg/kg/injection, schedule: Q04DX003 (ip), vehicle: Klucel (hydroxypropylcellulose) (HPC) 100 % of control | dose: 400.0 mg/kg/injection, schedule: Q01DX009 (ip), vehicle: Klucel (hydroxypropylcellulose) (HPC) 91 % of control | dose: 400.0 mg/kg/injection, schedule: Q04DX003 (ip), vehicle: Klucel (hydroxypropylcellulose) (HPC) 100 % of control

CCN(CC)CCCC(C)Nc1ncnc(N)c1[N+](=O)[O-] (stereo not drawn)
inactive: dose: 25.0 mg/kg/injection, schedule: Q01DX009 (ip), vehicle: saline 120 % of control | [1] 90 % of control | dose: 50.0 mg/kg/injection, schedule: Q01DX009 (ip), vehicle: saline 120 % of control | [2] 95 % of control | dose: 100.0 mg/kg/injection, schedule: Q01DX009 (ip), vehicle: saline 90 % of control | [3] 100 % of control

Nc1ccc(Oc2ccc(Cl)cc2)c(Cl)c1
inactive: [4] 100 % of control | [5] 95 % of control | [6] 104 % of control

O=C1C=CC(=O)c2c(O)c(CBr)c(CBr)c(O)c21
inactive: dose: 3.12 mg/kg/injection, schedule: Q01DX009 (ip), vehicle: water 96 % of control | dose: 6.25 mg/kg/injection, schedule: Q01DX009 (ip), vehicle: water 118 % of control | dose: 6.25 mg/kg/injection, schedule: Q04DX003 (ip), vehicle: water 105 % of control | dose: 12.5 mg/kg/injection, schedule: Q01DX009 (ip), vehicle: water 108 % of control | dose: 12.5 mg/kg/injection, schedule: Q04DX003 (ip), vehicle: water 105 % of control | dose: 25.0 mg/kg/injection, schedule: Q01DX009 (ip), vehicle: water 118 % of control | dose: 25.0 mg/kg/injection, schedule: Q04DX003 (ip), vehicle: water 100 % of control | dose: 50.0 mg/kg/injection, schedule: Q01DX009 (ip), vehicle: water 112 % of control | dose: 50.0 mg/kg/injection, schedule: Q04DX003 (ip), vehicle: water 107 % of control | dose: 100.0 mg/kg/injection, schedule: Q01DX009 (ip), vehicle: water 105 % of control

COC(=O)/C(C#N)=C\c1ccccc1
inactive: dose: 50.0 mg/kg/injection, schedule: Q04DX003 (ip), vehicle: saline with Tween-80 104 % of control | [4] 109 % of control

O=C1N=C(Oc2ccccc2)SC1=O
inactive: dose: 25.0 mg/kg/injection, schedule: Q01DX009 (ip), vehicle: saline with Tween-80 103 % of control and 104 % of control | dose: 50.0 mg/kg/injection, schedule: Q01DX009 (ip), vehicle: saline + alcohol 113 % of control | dose: 50.0 mg/kg/injection, schedule: Q01DX009 (ip), vehicle: saline with Tween-80 95 % of control and 108 % of control | dose: 100.0 mg/kg/injection, schedule: Q01DX009 (ip), vehicle: saline + alcohol 120 % of control | [7] 117 % of control and 123 % of control | dose: 200.0 mg/kg/injection, schedule: Q01DX009 (ip), vehicle: saline + alcohol 113 % of control | [8] 117 % of control and 121 % of control

COc1ccccc1Cl
inactive: [7] 103 % of control | [4] 116 % of control | [8] 103 % of control | [5] 104 % of control | dose: 400.0 mg/kg/injection, schedule: Q01DX009 (ip), vehicle: saline with Tween-80 96 % of control | [6] 108 % of control
